{"source": "paper PMC4313523", "about": "“Decolorization of Anthraquinonic Dyes from Textile Effluent Using Horseradish Peroxidase: Optimization and Kinetic Study” (The Scientific World Journal, 2015)", "key": {"[1]": {"test_system": "T1, horseradish peroxidase (HRP)", "T1 construct": "gene PRXC1A; commercial enzyme from Sigma-Aldrich, 250 purpurogallin units per mg", "test": "dye decolorization initial rates, fit to ping-pong bi-bi model with H2O2 inhibition (best fit)", "assay_type": "biochemical", "settings": "read-out: Hydrogen peroxide inhibition"}, "[2]": {"test_system": "T1, horseradish peroxidase (HRP)", "test": "dye decolorization initial rates, fit to ping-pong bi-bi model with dye inhibition", "assay_type": "biochemical", "settings": "substrate inhibition (dead-end complex)", "excerpt": "dye decolorization initial rates, fit to ping-pong bi-bi model with dye inhibition on horseradish peroxidase (HRP)"}}, "note": "Read-outs that look alike come from different tables or passages of the source.", "data": [{"molecule": "Cc1cc(C)c(Nc2cc(S(=O)(=O)O)c(N)c3c2C(=O)c2ccccc2C3=O)c(C)c1NC(=O)C(Br)=CBr", "note": "[AB 225, C.I. Acid Blue 225]", "values": [{"measurement": "Km", "setting": "[1]; co-substrate H2O2 varied at dye 0.029 mM, pH 5.5, 24 °C, 0.04 IU/mL HRP, R2 0.9908", "value": 152, "unit": "µM"}, {"measurement": "Dye inhibition", "setting": "[2]; H2O2 fixed at 0.1 mM, dye 0.015-0.051 mM, pH 5.5, 24 °C, 0.04 IU/mL HRP, R2 0.9602", "value": 0.0126, "unit": "mM"}]}, {"molecule": "C.I. Acid Violet 109 [AV 109]", "values": [{"measurement": "Km", "setting": "[1]; co-substrate H2O2 varied at dye 0.018 mM, pH 5.25, 24 °C, 0.15 IU/mL HRP, R2 0.9902", "value": 330, "unit": "µM"}, {"measurement": "Dye inhibition", "setting": "[2]; H2O2 fixed at 0.06 mM, dye 0.012-0.043 mM, pH 5.25, 24 °C, 0.15 IU/mL HRP, R2 0.9225", "value": 0.0080, "unit": "mM"}]}]}
